In patent publication US20040127472A1, “Use of anecortave acetate for the protection of visual acuity in patients with age related macular degeneration” (priority 2002, published 2004):

How the values were obtained:
[1] = Preclinical drug levels after slow-release depot adjacent to the posterior scleral surface; type: in vivo; details: data not shown
[2] = molecular target: urokinase-like plasminogen activator (Homo sapiens, UniProt P00749); details: cited from earlier work
[3] = test system: subfoveal CNV lesion secondary to AMD; assay: Clinical trial, CNV lesion surface areas from standardized fluorescein angiograms (DARC); type: in vivo, patients; details: for inhibition of lesion growth versus placebo: Month 6
Text: (§1) This ongoing trial was initiated to compare the clinical efficacy of anecortave acetate versus placebo treatment for preservation (maintenance) of vision and inhibition of CNV lesion growth. Patients with a logMAR visual acuity of 0.3 (20/40 Snellen equivalent) to 1.2 (20/320 Snellen equivalent) and primary or recurrent subfoveal choroidal neovascularization (CNV) secondary to AMD with a lesion up to 30.48mm^2 (12 disc areas) in size were enrolled. At Baseline and follow-up visits, best-corrected logMAR visual acuity was obtained on all patients using guidelines previously established for the Early Treatment Diabetic Retinopathy Study. Patient lesion eligibility for this study was determined from standardized fluorescein angiograms at the Digital Angiography Reading Center (DARC) by certified Readers (trained retina specialists) prior to enrollment and treatment. The DARC also evaluated changes from Baseline in the fluorescein angiographic characteristics of the lesions in masked fashion. Each data point represents the average of at least two independent evaluations by DARC Readers. Because all angiographic data for this study is being collected using the same fimdus camera and digital camera systems and stored as uncompressed digital images, the actual lesion surface areas can be more closely approximated in mm^2 rather than requiring the disc area “best-fit” estimates previously used for film angiographic data.
(§2) Clinical efficacy data is being obtained from evaluations of best-corrected logMAR visual acuity and standardized fluorescein angiograms. Clinical safety data obtained from general physical examinations, laboratory evaluations of blood and urine, and complete ophthalmic examinations, including indocyanine green angiography, continue to be periodically evaluated by the Independent Safety Committee overseeing this study. Clinical data from evaluations for safety and efficacy performed at Day 1-2, Week 2, Week 6, Month 3, and Month 6 following patient randomization and treatment are reported here.
The primary efficacy outcome for this ongoing study is the mean change from Baseline in best-corrected logMAR visual acuity. Secondary efficacy outcomes are: the percentage of patients with preservation or maintenance of vision (defined as loss of less than three logMAR lines [less than 15 logMAR letters] of visual acuity); the percentage of patients with clinically significant worsening of vision (defined as a loss of at least three logMAR lines [at least 15 logMAR letters] of visual acuity); the percentage of patients with severe vision loss (defined as a loss of at least six logMAR lines [at least 30 logMAR letters] of visual acuity); and changes in CNV lesion characteristics (defined as total lesion area, total CNV and total classic CNV).
All efficacy analyses were based on the intent-to-treat principle. All patients received the medication to which they were assigned, and were analyzed accordingly. Last-observation-carry-forward was used to impute missing values. Baseline comparisons were tested using analysis of variance (for continuous outcomes) and Pearson's chi square (for binary outcomes). Changes from baseline in visual acuity and lesion parameters were tested in a repeated measures analysis of variance model with appropriate contrasts for the 6-month comparisons. Comparisons of binary outcomes at Month 6 were evaluated using Pearson's chi-square tests. All analyses of ocular outcomes are based on changes in the study (i.e., treated) eye.

[4] = Clinical trial, safety evaluation (ophthalmic and physical examinations, blood and urine); type: in vivo, patients
Text: as §2
Following completion of the Month 6 visit by all patients, the accumulated safety data were evaluated by the Independent Safety Committee overseeing this study. […] The most common ocular changes reported were changes in lens opacity using the Lens Opacity Classification System (LOCS) II, and included reports of nuclear color, nuclear opalescence, cortical, and posterior subcapsular changes. Cataracts are a common intercurrent disorder in this patient population, and the changes seen were documented in all treatment groups and in contralateral (untreated) eyes. The cataractous changes reported were described as mild and typically unrelated to treatment. The second most common ocular change, a decrease in vision (defined as a decrease of ≧4 logMAR lines from the previous visit), is also a common problem in this patient population. These vision decreases occurred in all treatment groups and in the contralateral eye. Other ocular changes (occurring with a frequency greater than 5%) were ptosis, ocular pain, subconjunctival hemorrhage, ocular pruritis, ocular burning/stinging, pupil disorders, foreign body sensation, ocular hyperemia, and abnormal vision. These changes were reported in all four treatment groups, in both treated eyes and contralateral eyes, were characterized as primarily mild, were generally not attributed to treatment, and were transient in nature. The single report of an IOP increase (≧10 mmHg) from Baseline occurred in a patient treated with anecortave acetate 30 mg and was attributed to intercurrent illness. Of the ocular changes reported, those most frequently attributed to study treatment were ptosis, ocular pain, subconjunctival hemorrhage, ocular pruritis, and ocular burning/stinging. These treatment-related events were mostly mild, transient, and seen within all four treatment groups.
The most common non-ocular changes from Baseline reported for this study were hypertension, peripheral edema, depression, and arthritis, none of which were attributed to treatment.

[5] = molecular target: matrix metalloproteinase-3 (Homo sapiens, UniProt P08254); details: cited from earlier work
[6] = test system: patients with subfoveal choroidal neovascularization (CNV) secondary to AMD; assay: Clinical trial, best-corrected logMAR visual acuity after a single posterior juxtascleral administration; type: in vivo; details: for LogMAR Change 1 Line Improved, % of patients / LogMAR Change 1 Line Worsened, % of patients / LogMAR Change 2 Lines Worsened, % of patients / LogMAR Change No Change, % of patients / LogMAR Change ≧2 Lines Improved, % of patients / LogMAR Change ≧3 Lines Worsened (clinically significant vision loss), % of patients: Month 6 vs Baseline
Text: as §1
The 128 patients in this double-masked, dose-response study were enrolled and treated between April 1999 and May 2001 by 18 participating sites in the US and EU. Prior to treatment, patients were enrolled and equally randomized to anecortave acetate sterile suspension for injection 30 mg (N=33), 15 mg (N=33), or 3 mg (N=32) or to placebo (vehicle, N=30). Masking of the clinical sites as to treatment group is being maintained in two ways. Study medication is masked by placing the treatment kits including study medication and supplies for the posterior juxtascleral administration in sealed opaque boxes identified by patient number only. The boxes were numbered sequentially at each clinical site and patients were assigned the next available sequential number upon enrollment. The randomization was built into the sequential numbering of the treatment kits and blocked within each site to maintain equal distribution across treatment assignments. Masking as to treatment group is also being maintained at each site by having an unmasked injecting investigator perform the treatments and a masked examining investigator perform the subsequent evaluations. Upon enrollment of each patient, anecortave acetate or placebo was administered behind the eye as a 0.5 mL posterior juxtascleral injection onto the outer surface of the sclera near the macula using a specially designed cannula. The cannula is described in commonly owned U.S. Pat. No. 6,413,245B1.
as §2
The primary efficacy outcome for this ongoing study is the mean change from Baseline in best-corrected logMAR visual acuity. […]

[7] = test system: plasminogen activator inhibitor 1; details: cited from earlier work
glucocorticoid receptor = molecular target: T1, glucocorticoid receptor (Homo sapiens, UniProt P04150); details: preclinical data (refs 8,9); cited from earlier work
T1 sequence (P04150 1-777): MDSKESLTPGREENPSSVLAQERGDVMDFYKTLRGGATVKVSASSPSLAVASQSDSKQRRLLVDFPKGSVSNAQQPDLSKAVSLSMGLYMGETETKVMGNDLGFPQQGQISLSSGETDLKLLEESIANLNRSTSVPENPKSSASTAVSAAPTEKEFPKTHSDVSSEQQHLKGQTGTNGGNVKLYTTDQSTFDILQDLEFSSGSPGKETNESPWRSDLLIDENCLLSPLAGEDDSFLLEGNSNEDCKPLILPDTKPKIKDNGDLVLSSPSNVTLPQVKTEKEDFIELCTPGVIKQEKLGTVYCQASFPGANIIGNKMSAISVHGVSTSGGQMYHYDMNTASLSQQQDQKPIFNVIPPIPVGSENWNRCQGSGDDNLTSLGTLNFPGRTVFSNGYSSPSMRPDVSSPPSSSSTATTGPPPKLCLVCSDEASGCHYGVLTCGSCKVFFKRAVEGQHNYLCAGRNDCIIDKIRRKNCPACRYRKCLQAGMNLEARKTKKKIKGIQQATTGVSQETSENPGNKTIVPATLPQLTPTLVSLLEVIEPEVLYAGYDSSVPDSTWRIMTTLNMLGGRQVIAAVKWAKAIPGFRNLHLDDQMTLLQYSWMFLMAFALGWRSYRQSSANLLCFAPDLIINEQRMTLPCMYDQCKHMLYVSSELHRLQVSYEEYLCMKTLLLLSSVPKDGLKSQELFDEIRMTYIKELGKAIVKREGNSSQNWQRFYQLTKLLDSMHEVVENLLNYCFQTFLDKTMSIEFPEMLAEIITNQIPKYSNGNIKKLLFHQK

[8] = 3 mg single administration, n = 32
[9] = 15 mg single administration, n = 33
[10] = 15 mg single administration, n = 33, listed as Anec Acet
[11] = 30 mg single administration, n = 33

Sequence of matrix metalloproteinase-3 (P08254 100-477, species assumed): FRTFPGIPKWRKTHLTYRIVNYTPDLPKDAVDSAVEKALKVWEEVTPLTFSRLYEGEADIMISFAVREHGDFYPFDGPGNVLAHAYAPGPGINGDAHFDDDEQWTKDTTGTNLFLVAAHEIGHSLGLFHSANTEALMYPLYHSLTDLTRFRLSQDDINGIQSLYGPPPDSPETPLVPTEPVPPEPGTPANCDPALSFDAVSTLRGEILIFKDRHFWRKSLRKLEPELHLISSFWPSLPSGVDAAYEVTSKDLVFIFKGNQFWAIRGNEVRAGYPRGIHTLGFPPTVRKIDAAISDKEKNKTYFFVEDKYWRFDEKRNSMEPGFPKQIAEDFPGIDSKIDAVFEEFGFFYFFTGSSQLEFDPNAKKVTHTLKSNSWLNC

CC(=O)OCC(=O)[C@@]1(O)CC[C@H]2[C@@H]3CCC4=CC(=O)CC[C@]4(C)C3=CC[C@@]21C [anecortave acetate, 4,9(11)-pregnadien-17α,21-diol-3,20 dione-21 acetate]
duration of therapeutic drug levels in the adjacent choroid and retina [1]: up to 6 months
effect on urokinase-like plasminogen activator [2]: inhibits
inhibition of lesion growth versus placebo ([3]; 3 mg): trend favoring
inhibition of total CNV surface area growth, percent change from Baseline, versus placebo ([3]; 15 mg, Month 6, p=0.0001): statistically superior to placebo treatment
inhibition of total lesion surface area growth, percent change from Baseline, versus placebo ([3]; 15 mg, Month 6, p=0.0005): statistically superior to placebo treatment
inhibition of total classic CNV surface area growth, percent change from Baseline, versus placebo ([3]; 15 mg, Month 6, p=0.0008): statistically superior to placebo treatment
inhibition of lesion growth versus placebo ([3]; 30 mg): trend favoring
reports of IOP increase (≧10 mmHg) from Baseline ([4]; 30 mg, attributed to intercurrent illness): single report
changes in blood chemistry, hematology, or urinalysis ([4]; all doses, 6 months): No treatment-related changes
safety evaluation by the Independent Safety Committee ([4]; all doses, after Month 6 visit): no clinically relevant medication-related or administration-related safety concerns were identified
ocular corticosteroid side effects (elevated intraocular pressure or accelerated cataract progression) ([4]; clinical study, at least 6 months exposure): no clinical evidence of ocular corticosteroid side effects
effect on matrix metalloproteinase-3 [5]: inhibits
LogMAR Change 1 Line Improved, % of patients [6, 8]: 0%
LogMAR Change 1 Line Worsened, % of patients [6, 8]: 12.5%
LogMAR Change 2 Lines Worsened, % of patients [6, 8]: 18.8%
LogMAR Change No Change, % of patients [6, 8]: 37.5%
LogMAR Change ≧2 Lines Improved, % of patients [6, 8]: 6%
LogMAR Change ≧3 Lines Worsened (clinically significant vision loss), % of patients [6, 8]: 25.0%
LogMAR Change ≧2 Lines Improved, % of patients ([6]; 3 mg single administration, n = 32, listed as Anec Acet): 6.3%
<6 Lines Worse, % of patients ([6]; 3 mg, Month 6): 78.13%
Severe Vision Loss, ≧6 Lines Worse, % of patients ([6]; 3 mg, Month 6): 21.88%
mean change at Month 6 from Baseline in logMAR visual acuity, versus placebo ([6]; 3 mg, statistical significance not achieved): Trends also favor treatment
average final logMAR value ([6]; 15 mg single administration, Month 6 (20/125 Snellen equivalent; Baseline 0.73)): 0.81 logMAR
LogMAR Change 1 Line Improved, % of patients [6, 9]: 3.0%
LogMAR Change 1 Line Worsened, % of patients [6, 9]: 12.1%
LogMAR Change 2 Lines Worsened, % of patients [6, 9]: 30.3%
LogMAR Change No Change, % of patients [6, 9]: 24.2%
LogMAR Change ≧2 Lines Improved, % of patients [6, 9]: 18%
LogMAR Change ≧3 Lines Worsened (clinically significant vision loss), % of patients [6, 9]: 12%
LogMAR Change ≧2 Lines Improved, % of patients [6, 10]: 18.2%
LogMAR Change ≧3 Lines Worsened (clinically significant vision loss), % of patients [6, 10]: 12.1%
mean change from Baseline logMAR visual acuity ([6]; 15 mg single treatment, Month 6): +0.08 logMAR score
<6 Lines Worse, % of patients ([6]; 15 mg, Month 6): 96.97%
Severe Vision Loss, ≧6 Lines Worse, % of patients ([6]; 15 mg, Month 6): 3.03%
percentage of patients with preservation of vision (decrease of less than three logMAR lines from Baseline) ([6]; 15 mg, Month 6, overall analysis): 88%
percentage of patients with preservation of vision (decrease of less than three logMAR lines from Baseline) ([6]; 15 mg, Month 6, subgroup with predominantly classic CNV lesion): 92%
mean change at Month 6 from Baseline in logMAR visual acuity, versus placebo ([6]; 15 mg, p=0.0032): statistically superior to placebo treatment
LogMAR Change 1 Line Improved, % of patients [6, 11]: 12.1%
LogMAR Change 1 Line Worsened, % of patients [6, 11]: 15.2%
LogMAR Change 2 Lines Worsened, % of patients [6, 11]: 15.2%
LogMAR Change No Change, % of patients [6, 11]: 30.3%
LogMAR Change ≧2 Lines Improved, % of patients [6, 11]: 3%
LogMAR Change ≧3 Lines Worsened (clinically significant vision loss), % of patients [6, 11]: 24.2%
LogMAR Change ≧2 Lines Improved, % of patients ([6]; 30 mg single administration, n = 33, listed as Anec Acet): 3.0%
<6 Lines Worse, % of patients ([6]; 30 mg, Month 6): 75.76%
Severe Vision Loss, ≧6 Lines Worse, % of patients ([6]; 30 mg, Month 6): 24.24%
mean change at Month 6 from Baseline in logMAR visual acuity, versus placebo ([6]; 30 mg, statistical significance not achieved): Trends also favor treatment
effect on plasminogen activator inhibitor 1 [7]: upregulates
corticosteroid activity (glucocorticoid receptor): no measurable corticosteroid activity
